The target of the assay is T1, Human HPK1, catalytic domain (Homo sapiens, UniProt Q92918).
T1 sequence (Q92918 1-346): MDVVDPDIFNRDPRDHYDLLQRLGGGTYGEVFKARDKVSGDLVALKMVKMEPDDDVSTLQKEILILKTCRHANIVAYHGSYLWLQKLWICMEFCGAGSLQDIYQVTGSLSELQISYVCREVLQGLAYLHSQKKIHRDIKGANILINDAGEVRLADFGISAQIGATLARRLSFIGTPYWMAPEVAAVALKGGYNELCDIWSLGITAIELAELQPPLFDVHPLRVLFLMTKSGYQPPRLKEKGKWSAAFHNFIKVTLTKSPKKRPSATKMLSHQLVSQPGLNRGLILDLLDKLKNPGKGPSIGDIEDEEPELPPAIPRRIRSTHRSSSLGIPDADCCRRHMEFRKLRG
The assay is described as follows: HPK1-SLP76 TR-FRET Assay. It is filed as biochemical. The note with it: 75 pM HPK1, ATP 10 uM, SLP76 10 nM, 30 min pre-incubation, 60 min reaction. A general note: Time-resolved FRET reads energy transfer from a long-lived donor to a nearby acceptor.

Regarding `COc1cc2c(cc1Nc1ncc3ccc(-c4cccnc4)cc3n1)CNCC2` [Compound 1-40, N-(6-methoxy-1,2,3,4-tetrahydroisoquinolin-7-yl)-7-(pyridin-3-yl)quinazolin-2-amine], 8.94 nM corresponded to half-maximal inhibition (IC50).
The result for `Cc1c(-c2cc3nc(Nc4ccccc4Cl)ncc3c(N)c2F)cnc2c1NCCO2` [Compound 2-31, N~2~-(2-chlorophenyl)-6-fluoro-7-(8-methyl-2,3-dihydro-1H-pyrido[2,3-b][1,4]oxazin-7-yl)quinazoline-2,5-diamine] reads 4.62 nM.
With `Cc1c(-c2cc3nc(Nc4ccc5c(c4)CNCCC5)ncc3c(N)c2F)cnc2c1NCCO2` [Compound 2-120, 6-fluoro-7-(8-methyl-2,3-dihydro-1H-pyrido[2,3-b][1,4]oxazin-7-yl)-N~2~- (2,3,4,5-tetrahydro-1H-2-benzazepin-8-yl)quinazoline-2,5-diamine], the 50% inhibitory concentration (IC50) (in general, the midpoint of a concentration-inhibition curve) stood at 0.0066 nM.
The result for `Cc1c(-c2cc3nc(Nc4ccccc4C4CC4)ncc3c(N)c2F)cnc2c1NCCO2` [Compound 2-26, N~2~-(2-cyclopropylphenyl)-6-fluoro-7-(8-methyl-2,3-dihydro-1H-pyrido[2,3-b][1,4]oxazin-7-yl)quinazoline-2,5-diamine] reads 11.5 nM.
With `CNC(=O)C(C)c1ccc(Nc2ncc3cc(F)c(-c4cnc5c(c4C)NCCO5)cc3n2)cc1` (single isomer, unassigned) [Compound 1-117, (R or S)-2-(4-{[6-fluoro-7-(8-methyl-2,3-dihydro-1H-pyrido[2,3-b][1,4]oxazin-7-yl)quinazolin-2-yl]amino}phenyl)-N-methylpropanamide] the figure was 0.0705 nM; with `COc1cc2c(cc1Nc1ncc3c(N)c(F)c(-c4cnc5c(c4C)NCCO5)cc3n1)CN(C)CC2` [Compound 2-2, 6-fluoro-N~2~-(6-methoxy-2-methyl-1,2,3,4-tetrahydroisoquinolin-7-yl)-7-(8-methyl-2,3-dihydro-1H-pyrido[2,3-b][1,4]oxazin-7-yl)quinazoline-2,5-diamine], 0.0915 nM; with `COc1cc2c(cc1Nc1ncc3ccc(N4CC(O)(C(F)(F)F)C4)cc3n1)CN(C)CC2` (racemic) [Compound 3-54, (S and R)-1-12-[(6-methoxy-2-methyl-1,2,3,4-tetrahydroiso-quinolin-7-yl)amino]quinazolin-7-yl}-3-(trifluoromethyl)azet-idin-3-ol], 189 nM.
With `COCC1CN(c2ccc3cnc(Nc4cc5c(cc4OC)CCN(C)C5)nc3c2)C1` [Compound 3-68, 7-[3-(methoxymethyl)azetidin-1-yl]-N-(6-methoxy-2-methyl-1,2,3,4-tetrahydroisoquinolin-7-yl)quinazolin-2-amine] the figure was 520 nM; with `COc1cc2c(cc1Nc1ncc3ccc(-c4cncc(C(=O)N5CCOCC5)c4)cc3n1)CNCC2` [Compound 1-47, (5-{2-[(6-methoxy-1,2,3,4-tetrahydroisoquinolin-7-yl)amino]quinazolin-7-yl}pyridin-3-yl)(morpholin-4-yl)methanone], 273 nM; with `COc1cc2c(cc1Nc1ncc3ccc(-c4cncc(NS(=O)(=O)C(C)C)c4)cc3n1)CNCC2` [Compound 1-51, N-(5-{2-[(6-methoxy-1,2,3,4-tetrahydroisoquinolin-7-yl)amino]quinazolin-7-yl}pyridin-3-yl)propane-2-sulfonamide], 48 nM.
`COc1cc2c(cc1Nc1ncc3ccc(-c4ccc5c(c4)OCO5)cc3n1)CNCC2` [Compound 1-71, 7-(2H-1,3-benzodioxol-5-yl)-N-(6-methoxy-1,2,3,4-tetrahydroisoquinolin-7-yl)quinazolin-2-amine]: the IC50 was found to be 138 nM.
The result for `COc1cc2c(cc1Nc1ncc3ccc(-c4cccc(S(=O)(=O)N5CCOCC5)c4)cc3n1)CNCC2` [Compound 1-77, N-(6-methoxy-1,2,3,4-tetrahydroisoquinolin-7-yl)-7-{3-[(morpholin-4-yl)sulfonyl]phenyl}quinazo-lin-2-amine] reads 24.7 nM.
With `COc1cc2c(cc1Nc1ncc3ccc(N4CCCC(CN5CCCC5=O)C4)cc3n1)CN(C)CC2` (racemic) [Compound 3-20, (S and R)-1-1(1-12-[(6-methoxy-2-methyl-1,2,3,4-tetrahydroiso-quinolin-7-yl)amino]quinazolin-7-yl}piperidin-3-yl)methyl]-pyrrolidin-2-one] the figure was 771 nM; with `CNC(=O)C1(c2ccc(Nc3ncc4c(N)c(F)c(-c5cnc6c(c5C)NCCO6)cc4n3)cc2)CCCCC1` [Compound 2-80, 1-(4-((5-amino-6-fluoro-7-(8-methyl-2,3-dihydro-1H-pyrido[2,3-b][1,4]oxazin-7-yl)quinazolin-2-yl)amino)phenyl)-N-methylcyclohexane-1-carboxamide], 0.0728 nM.
The result for `COc1cc(C2CCN(C)C2=O)ccc1Nc1ncc2c(N)c(F)c(-c3cnc4c(c3C)NCCO4)cc2n1` (single isomer, unassigned) [Compound 2-54, (R or S)-3-(4-{[5-amino-6-fluoro-7-(8-methyl-2,3-dihydro-1H-pyrido[2,3-b][1,4]oxazin-7-yl)quinazolin-2-yl]amino}-3-methoxyphenyl)-1-methylpyrrolidin-2-one] reads 0.0784 nM.
With `COc1cc2c(cc1Nc1ncc3ccc(-c4cccc(CN5CCCCC5)c4)cc3n1)CNCC2` [Compound 1-69, N-(6-methoxy-1,2,3,4-tetrahydroisoquinolin-7-yl)-7-{3-[(piperidin-1-yl)methyl]phenyl}quinazolin-2-amine], 215 nM corresponded to half-maximal inhibition (IC50).
The result for `Cc1c(-c2cc3nc(Nc4ccc(CC(C)(C)O)cc4)ncc3c(N)c2F)cnc2c1NCCO2` [Compound 2-178, 1-(4-{[5-amino-6-fluoro-7-(8-methyl-2,3-dihydro-1H-pyrido[2,3-b][1,4]oxazin-7-yl)quinazolin-2-yl]amino}phenyl)-2-methylpropan-2-ol] reads 0.0933 nM; that for `COc1cc2c(cc1Nc1ncc3ccc(-c4ccccc4N4CCOC4=O)cc3n1)CN(C)CC2` [Compound 1-10, 3-(2-{2-[(6-methoxy-2-methyl-1,2,3,4-tetrahydroisoquinolin-7-yl)amino]quinazolin-7-yl}phenyl)-1,3-oxazolidin-2-one], 27 nM; that for `COc1cc2c(cc1Nc1ncc3ccc(-c4ccc(CN(C)C)cc4)cc3n1)CNCC2` [Compound 1-57, 7-{4-[(dimethylamino)methyl]phe-nyl}-N-(6-methoxy-1,2,3,4-tetrahydroisoquinolin-7-yl)quinazolin-2-amine], 79.2 nM.
Regarding `COc1cc2c(cc1Nc1ncc3ccc(N[C@H]4CCN(C(=O)C5CC5)C4)cc3n1)CN(C)CC2` [Compound 3-22, cyclopropyl[(3S)-3-({2-[(6-meth-oxy-2-methyl-1,2,3,4-tetrahydro-isoquinolin-7-yl)amino]quinaz-olin-7-yl}amino)pyrrolidin-1-yl]-methanone], the IC50 worked out at 535 nM.
With `COc1cc2c(cc1Nc1ncc3ccc(Nc4cccc(C#N)n4)cc3n1)CN(C)CC2` [Compound 3-27, 6-({2-[(6-methoxy-2-methyl-1,2,3,4-tetrahydroisoquinolin-7-yl)amino]quinazolin-7-yl}-amino)-pyridine-2-carbonitrile] the figure was 22.5 nM.

The record behind these values is US20230399341A1, “7-PHENYL SUBSTITUTED 2-AMINOQUINAZOLINE INHIBITORS OF HPK1” (MERCK SHARP & DOHME LLC, priority 2020, published 2023).
